Measured values taken from patent publication US7691392B2 (Kosan Biosciences Incorporated, priority 2005, dated 2010).
“And” between values parts separate entries of the source, which are not always exact repeats. Equal entries are not always repeated. “Also recorded” adds a separate entry of the source. Where two headings read alike, the source gives them in different places.

Legend:
[1] = Plasma pharmacokinetics of 17-AAG and 17-AG in the open-label dose escalating trial in MM patients; conditions: for Cmax: iv
Method: The total number of PK samples collected was approximately 110 mL of whole blood (7-8 tablespoons). If a patient experienced a potentially drug-related SAE, additional PK samples were collected. Blood was drawn from the contralateral arm to the infusion site using an indwelling catheter to avoid multiple needle sticks. […] The blood tube was inverted several times, and the tube placed in wet ice immediately pending separation of the plasma. If a catheter was used for blood collection, the fluid in the catheter was completely withdrawn prior to each sample collection and discarded. Plasma samples were kept on wet ice during collection and centrifugation. Plasma samples were split into two cryovials prior to freezing at −70° C.
The PK analysis was performed as follows. […] PK parameters were calculated on plasma concentration time data by non-compartmental analysis using Kinetica version 4.3 software (Innaphase, Champs sur Marne, France). AUC was calculated by the mixed log-linear rule: the linear rule was applied to the range where concentration was ascending and the log-linear rule was applied to the range where the concentration was descending. AUClast is the area from t=0 to tlast, the last sampling time. AUCextra is the extrapolated area from AUClast to infinity and AUCtotal=AUClast+AUCextra and is also named AUC0-∞ area under the concentration-time curve from time zero to infinity. The terminal rate constant λz was calculated on at least three points on the elimination curve with values greater than the lower limit of quantitation. […] Table 5 lists the areas, Cmax, and half-life for the metabolite 17-AG (mean±one standard deviation). […] There was no dose dependency for half-life, clearance or distributive volumes for these dose administrations.

[2] = Dose limiting toxicity and drug-related toxicities in the MM trial
Description: Non-Hematologic toxicities comprise: (1) any≧Grade 3 non-hematologic toxicity (except Grade 3 injection site reaction, alopecia, anorexia, fatigue), (2) nausea, diarrhea and/or vomiting of Grade≧3 despite the use of maximal medical intervention and/or prophylaxis, and/or (3) treatment delay of more than 4 weeks due to prolonged recovery from a drug-related toxicity.
The doses and schedule of study drug were as follows. […] Subsequent patient cohorts were enrolled per the escalation scheme outlined in the table below, as supported by observed toxicities. […] If one of three evaluable patients experienced a DLT, then the cohort was increased to six evaluable patients. If two or more of six evaluable patients in a cohort experienced a DLT, then the MTD was deemed to have been exceeded; all further accrual was at the previous dose level. If no more than one of the six patients experienced a DLT, then the next dose level was evaluated.

Hsp70 [3] = assay: Immunoblot of peripheral blood leukocytes for client proteins; assay type: in vivo, human
Description: These toxicities included hepatotoxicity and gastrointestinal toxicities. The laboratory correlates included a) surface expression of insulin-like growth factor receptor-1 (IGF-1R) and b), total expression of Akt, Hsp90 and Hsp70. […] Immunoblotting analyses were used to evaluate the total levels of Akt, Hsp90 and Hsp70. […]; and b) correlation of clinical responses to 17-AAG with the degree of modulation of the biomarkers. […] Finally, peripheral blood mononuclear cells were isolated on two occasions (the first and last infusion in Cycle 1, on Days 1 and 11) prior to and 4 hours following the infusion. Cells were examined for change in client protein expression by Western Blot. Client proteins of interest include Hsp70, RAF1, LCK and CDK4 and others as indicated.

cell kill = conditions: in vitro and in vivo xenograft models; cited from earlier work
advanced solid tumors = conditions: patients with advanced solid tumors; cited from earlier work
Hsp70 [4] = conditions: 320-450 mg/m^2/week; cited from earlier work
Raf-1 = conditions: at 24 hours; cited from earlier work
[5] = test system: colon adenocarcinoma cells; conditions: exposure to 17-AAG; cited from earlier work
leukemia cells = conditions: exposure to 17-AAG; cited from earlier work
[6] = test system: lung cancer cells with wild-type Rb; conditions: exposure to 17-AAG; cited from earlier work
NSCLC cells = conditions: exposure to 17-AAG; cited from earlier work
[7] = patients treated at 56 mg/m^2 17-AAG; cited from earlier work
[8] = daily for 5 days every 3 weeks; cited from earlier work
[9] = weekly 17-AAG, 3 weeks out of a 4 week cycle; cited from earlier work
[10] = dose levels studied; cited from earlier work
[11] = weekly dosing schedule; cited from earlier work
AKT = assay: AKT+ cells in bone marrow aspirates

C=CCNC1=C2C[C@@H](C)C[C@H](OC)[C@H](O)[C@@H](C)/C=C(\C)[C@H](OC(N)=O)[C@@H](OC)/C=C\C=C(/C)C(=O)NC(=CC1=O)C2=O [17-AAG, 17-Allylamino-17-demethoxygeldanamycin]
clearance CL for 17-AAG, individual patients ([1]; 220 mg/m^2, the two patients with metabolite in trough levels on Day 11): 16.8 L/h/m^2 and 17.3 L/h/m^2 | clearance CL for 17-AAG, average for the cohort ([1]; 220 mg/m^2 cohort): 25.3±9.6 L/h/m^2 | AUCtotal ([1]; 17-AAG 150 mg/m^2, mean ± SD): 5,592 ± 757 ng/mL * h | Terminal T1/2 ([1]; 17-AAG 150 mg/m^2, mean ± SD): 2.19 ± 0.58 h | Vss ([1]; 17-AAG 150 mg/m^2, mean ± SD): 170.9 ± 41.7 L | clearance ([1]; 17-AAG 150 mg/m^2, mean ± SD): 915.3 ± 113 mL/min | AUCtotal ([1]; 17-AAG 220 mg/m^2, mean ± SD): 9,460 ± 3,788 ng/mL * h | Vss ([1]; 17-AAG 220 mg/m^2, mean ± SD): 139.1 ± 45.7 L | Vz ([1]; 17-AAG 220 mg/m^2, mean ± SD): 171.0 ± 67.1 L | AUCtotal ([1]; 17-AAG 275 mg/m^2, mean ± SD): 13,803 ± 1,540 ng/mL * h | Vz ([1]; 17-AAG 275 mg/m^2, mean ± SD): 159.6 ± 54.4 L | AUCtotal ([1]; 17-AAG 340 mg/m^2, mean ± SD): 18,997 ± 4,195 ng/mL * h | Vz ([1]; 17-AAG 340 mg/m^2, mean ± SD): 174.0 ± 71.2 L | change of AUCtotal between Day 1 and Day 11 ([1]; 17 patients, first vs fourth infusion): no increase in AUCtotal between Day 1 and Day 11 | dose proportionality of Cmax ([1]; 150-340 mg/m^2 17-AAG): increased in an approximately dose proportional manner | half-life ([1]; human, in vivo): 2.19 to 3.68 h | AUC(0-t) ([1]; human, in vivo, 150 mg/m2): 5300 ng·h/mL | Vd ([1]; human, in vivo, 150 mg/m2, Vz, 17-AAG 150 mg/m^2, mean ± SD): 170 ± 30.3 L | AUC(0-t) ([1]; human, in vivo, 220 mg/m2): 9160 ng·h/mL | half-life ([1]; human, in vivo, 220 mg/m2): 2.68 ± 0.99 h | clearance ([1]; human, in vivo, 220 mg/m2, Clearance, 17-AAG 220 mg/m^2, mean ± SD): 780 mL/min | AUC(0-t) ([1]; human, in vivo, 275 mg/m2): 13400 ng·h/mL | half-life ([1]; human, in vivo, 275 mg/m2): 2.96 ± 1.34 h | clearance ([1]; human, in vivo, 275 mg/m2, Clearance, 17-AAG 275 mg/m^2, mean ± SD): 661 mL/min | Vd ([1]; human, in vivo, 275 mg/m2, Vss, 17-AAG 275 mg/m^2, mean ± SD): 123 ± 23.4 L | AUC(0-t) ([1]; human, in vivo, 340 mg/m2): 18700 ng·h/mL | half-life ([1]; human, in vivo, 340 mg/m2): 3.3 ± 0.83 h | clearance ([1]; human, in vivo, 340 mg/m2, Clearance, 17-AAG 340 mg/m^2, mean ± SD): 595 mL/min | Vd ([1]; human, in vivo, 340 mg/m2, Vss, 17-AAG 340 mg/m^2, mean ± SD): 101 ± 27.7 L | clearance ([1]; human, in vivo, CL, present study, overall): 792 mL/min | clearance ([1]; human, in vivo, Total systemic clearance, range of cohort means, across dose administrations): 636 to 915 mL/min | Vd ([1]; human, in vivo, distributive volume (Vss), range of cohort means, across dose administrations): 123 to 171 L | Vd ([1]; human, in vivo, distributive volume (Vz), range of cohort means, across dose administrations): 160 to 204 L | Cmax ([1]; human, in vivo, 150 mg/m2): 2400 ng/mL | Cmax ([1]; human, in vivo, 220 mg/m2): 4670 ng/mL | Cmax ([1]; human, in vivo, 275 mg/m2): 6820 ng/mL | Cmax ([1]; human, in vivo, 340 mg/m2): 9360 ng/mL | Vss ([1]; present study, overall): 144.45 ± 43.51 L | DLT ([2]; 150 mg/m^2, four patients): DLT was not observed in any of these four patients | DLT ([2]; 220 mg/m^2, seven evaluable patients): DLT was observed in one patient; the DLT was liver infiltration of plasma cells with a Grade 3 elevated ALT | DLT ([2]; 275 mg/m^2 twice weekly two of three weeks, three patients): DLT was not observed in any of these three patients; also recorded: without reaching dose limiting toxicity | drug-related toxicities other than the single Grade 3 elevated ALT ([2]; all dose levels): Grade 1-2 elevated transaminases, nausea, fatigue, diarrhea, anemia, myalgias and rash | Hsp70 in peripheral blood leukocytes (Hsp70 [3]; 220 mg/m^2 cohort, following treatment): reactive induction of Hsp70 | Hsp70 in PBL, immunoblot (Hsp70 [3]; two patients (275 and 340 mg/m^2), prior to and 4 h after infusion, Day 1 and Day 11): increase of Hsp70 | concentrations needed to achieve cell kill (cell kill): 10 to 500 nM | objective tumor responses (advanced solid tumors): No objective tumor responses have been observed | patients with induction of the co-chaperone protein Hsp70 (Hsp70 [4]): 8 of 9 | patients with Raf-1 depletion in tumor biopsies (Raf-1): 4 out of 6 | effect on client proteins [5]: depletion of Raf-1, c-Akt, and Erk1/2 | effect on client proteins (leukemia cells): down-regulation of intracellular Bcr-Ab1 and c-Raf proteins and reduction of Akt kinase activity | effect on client proteins [6]: degradation of cdk4, cdk6, and cyclin E | effect on client proteins (NSCLC cells): depletion of erbB 1 (EGFR) and erbB2 (p185) levels | Vz [7]: 93 L/m^2 | clearance [7]: 19.9 L/h/m^2 | maximum tolerated dose (MTD) and recommended Phase 2 dose [8]: 40 mg/m^2 | MTD [9]: 308 mg/m^2 | relation of dose and area under the curve (AUC) [10]: linear correlation | Vss [11]: 130 ± 50 L | t1/2 [11]: 2.98 ± 1.0 h | percent of AKT+ cells over total BM cells (AKT; Day 11 of treatment (more than 20% prior to treatment), p=0.057, FIG. 10): less than 10% | decrease in percent of AKT+ cells (AKT; Day 11 versus prior to treatment): more than 10% | Akt / pAKT in BMAs (AKT; screening versus Day 11, 150 and 220 mg/m^2 doses): decreased Akt; also recorded: decrease in pAKT
